For this data set the following is noted: Liquid, Closed cell (Static) method.

Molecules are shown by their SMILES. ± gives the expanded uncertainty stated by the source.

For orientation: vapor or sublimation pressure means the equilibrium pressure above the liquid or solid. Regarding `C1CCCCC1` [cyclohexane], the “vapor or sublimation pressure” value was 16.4 ± 1 kPa (303.15 K); 24.7 ± 1 kPa (313.15 K); 36.4 ± 1 kPa (323.15 K); 52 ± 1.1 kPa (333.15 K); 72.5 ± 1.1 kPa (343.15 K).

`CCCCCCCCCC` [decane]: the “vapor or sublimation pressure” value is, setting by setting: (303.15 K) 0.2 kPa; (313.15 K) 0.6 ± 1 kPa; (323.15 K) 1 ± 1 kPa; (333.15 K) 1.7 ± 1 kPa; (343.15 K) 2.7 ± 1 kPa; (353.15 K) 4.3 ± 1 kPa. Moreover, the “vapor or sublimation pressure” value by setting is: (363.15 K) 6.6 ± 1 kPa; (373.15 K) 9.9 ± 1 kPa; (383.15 K) 14.4 ± 1 kPa; (393.15 K) 20.6 ± 1 kPa.

Take `CCCCCCCCCCCC` [dodecane]: the “vapor or sublimation pressure” value is listed as 0.4 kPa (343.15 K); 0.7 ± 1 kPa (353.15 K); 1.2 ± 1 kPa (363.15 K); 2 ± 1 kPa (373.15 K); 3.2 ± 1 kPa (383.15 K); 4.9 ± 1 kPa (393.15 K).

Consider `CCC1CCCCC1` [ethylcyclohexane], for which the “vapor or sublimation pressure” value reads like this: (303.15 K) 2.1 ± 1 kPa; (313.15 K) 3.7 ± 1 kPa; (323.15 K) 6 ± 1 kPa; (333.15 K) 9.3 ± 1 kPa; (343.15 K) 13.9 ± 1 kPa; (353.15 K) 20.4 ± 1 kPa. Also, the “vapor or sublimation pressure” value was 28.9 ± 1 kPa (363.15 K), 40.3 ± 1 kPa (373.15 K), 54.8 ± 1.1 kPa (383.15 K) and 73.2 ± 1.1 kPa (393.15 K).

As to `CCCCCCC` [heptane], the “vapor or sublimation pressure” value is, setting by setting: (303.15 K) 7.9 ± 1 kPa; (313.15 K) 12.4 ± 1 kPa; (323.15 K) 19 ± 1 kPa; (333.15 K) 28.2 ± 1 kPa; (343.15 K) 40.6 ± 1 kPa; (353.15 K) 57.1 ± 1.1 kPa.

Consider `CC1CCCCC1` [methylcyclohexane], for which the “vapor or sublimation pressure” value was 7.9 ± 1 kPa (303.15 K); 12.3 ± 1 kPa (313.15 K); 18.5 ± 1 kPa (323.15 K); 27.1 ± 1 kPa (333.15 K); 38.7 ± 1 kPa (343.15 K); 53.8 ± 1.1 kPa (353.15 K). Further, the “vapor or sublimation pressure” value (363.15 K) is on record as 73.3 ± 1.1 kPa.

Values taken from the NIST ThermoML archive (doi:10.1021/acs.jced.8b00125).
